From patent US11185074B2, “Microbiocidal quinoline (thio)carboxamide derivatives” (SYNGENTA PARTICIPATIONS AG, priority 2017, dated 2021)

How the values were obtained:
[1] = system: Glomerella lagenarium (Colletotrichum lagenarium); assay: Glomerella lagenarium (Colletotrichum lagenarium) / liquid culture (anthracnose); assay type: cell-based; conditions: Colletotrichum orbiculare; 20 ppm; liquid culture, inhibition of growth photometrically 3-4 days after application; compared to untreated control; read-out: control of Glomerella lagenarium
[2] = system: Fusarium culmorum; assay: microbe, parasite or virus in culture; assay type: cell-based; conditions: read-out: control of Fusarium culmorum
[3] = system: Botryotinia fuckeliana (Botrytis cinerea); assay: Botryotinia fuckeliana (Botrytis cinerea) / liquid culture (gray mould); assay type: cell-based; conditions: 72 h, 20 ppm, liquid culture, inhibition of growth photometrically 3-4 days after application, compared to untreated control, read-out: control of Botryotinia fuckeliana
[4] = system: Fusarium culmorum; assay: whole plant or invertebrate; assay type: in vivo, Fusarium culmorum on wheat spikelets cv. Monsun; conditions: in Triticum aestivum, read-out: control of Fusarium culmorum
[5] = system: Magnaporthe grisea (Pyricularia oryzae); assay: microbe, parasite or virus in culture; assay type: cell-based; conditions: 72 h, read-out: control of Magnaporthe grisea
[6] = system: Monographella nivalis (Microdochium nivale); assay: Monographella nivalis (Microdochium nivale) / liquid culture (foot rot cereals); assay type: cell-based; conditions: 96 h, inhibition of growth photometrically 4-5 days after application, compared to untreated control
[7] = system: Sclerotinia sclerotiorum; assay: Sclerotinia sclerotiorum / liquid culture (cottony rot); conditions: 72 h, read-out: control of Sclerotinia sclerotiorum
Protocol: Sclerotinia sclerotiorum/Liquid Culture (Cottony Rot)
Mycelia fragments of a newly grown liquid culture of the fungus are directly mixed into nutrient broth (Vogels broth). After placing a (DMSO) solution of test compound into a microtiter plate (96-well format) the nutrient broth containing the fungal material is added. The test plates are incubated at 24° C. and the inhibition of growth is determined photometrically 3-4 days after application.

| Compound | inhibition of growth at 20 ppm [1] [%] | inhibition of growth at 20 ppm [2] [%] | inhibition of growth at 20 ppm [3] [%] | melting point [°C] | pest or weed control at 200 ppm [4] [%] | inhibition of growth at 20 ppm [5] [%] | inhibition of growth at 20 ppm [6] [%] | inhibition of growth at 20 ppm [7] [%] |
| --- | --- | --- | --- | --- | --- | --- | --- | --- |
| C=CCC(C)(C)NC(=O)c1cnc2c(F)c(F)ccc2c1 [E-36] | ≥ 80 | ≥ 80 | ≥ 80 | 116 to 119 | – | – | – | – |
| CCC(CC)CC(C)(CC(F)(F)F)NC(=O)c1cnc2ccccc2c1 (centres unmarked) [E-43] | ≥ 80 | ≥ 80 | ≥ 80 | 93 to 95 | ≥ 80 | ≥ 80 | – | – |
| CC(C)=C(F)CC(C)(CC(C)C)NC(=O)c1cnc2ccccc2c1 (centres unmarked) [E-19] | ≥ 80 | ≥ 80 | ≥ 80 | 95 to 97 | ≥ 80 | ≥ 80 | – | – |
| CC(CC1CCCC1)(CC(F)(F)F)NC(=O)c1cnc2ccccc2c1 (centres unmarked) [E-63] | ≥ 80 | ≥ 80 | ≥ 80 | 94 to 103 | ≥ 80 | ≥ 80 | ≥ 80 | ≥ 80 |
| CC(C)CC(C)(CC(C)C)NC(=O)c1cnc2c(F)cccc2c1 [E-4] | ≥ 80 | ≥ 80 | ≥ 80 | 139 to 142 | – | ≥ 80 | – | ≥ 80 |
| C/C(=C/c1ccccc1)CC(C)(C)NC(=O)c1cnc2c(F)cccc2c1 [E-31] | – | – | ≥ 80 | 127 to 129 | – | – | ≥ 80 | – |
| O=C(NC(CC1CC1)CC1CC1)c1cnc2ccccc2c1 [E-29] | ≥ 80 | ≥ 80 | ≥ 80 | 123 to 125 | – | – | – | – |
| C[C@](CC1CCCC1)(CC(F)(F)F)NC(=O)c1cnc2c(F)cccc2c1 [F-5, N-[(1S)-1-(cyclopentylmeth-yl)-3,3,3-trifluoro-1-methyl-propyl]-8-fluoro-quinoline-3-carboxamide] | ≥ 80 | ≥ 80 | ≥ 80 | 102 to 105 | ≥ 80 | ≥ 80 | – | ≥ 80 |
| CC(CC1CC=CCC1)(CC(F)(F)F)NC(=O)c1cnc2ccccc2c1 (centres unmarked) [E-55] | ≥ 80 | ≥ 80 | ≥ 80 | 90 to 95 | ≥ 80 | ≥ 80 | ≥ 80 | – |
| Cc1cccc2cc(C(=O)NC(C)(CC3CC=CCC3)CC(F)(F)F)cnc12 (centres unmarked) [E-53] | ≥ 80 | ≥ 80 | ≥ 80 | 112 to 114 | – | ≥ 80 | ≥ 80 | ≥ 80 |
| CC(CC1CC1)(CC1CC1)NC(=O)c1cnc2ccccc2c1 [E-26] | ≥ 80 | ≥ 80 | ≥ 80 | 92 to 94 | ≥ 80 | – | ≥ 80 | – |
| CC(C)CC(C)(CCc1ccccc1)NC(=O)c1cnc2c(F)cccc2c1 (centres unmarked) [E-8] | ≥ 80 | ≥ 80 | ≥ 80 | 170 to 175 | – | ≥ 80 | ≥ 80 | ≥ 80 |
| CC(CC1CC1)(CC1CC1)NC(=O)c1cnc2c(F)cccc2c1 [E-17] | ≥ 80 | ≥ 80 | ≥ 80 | 96 to 98 | ≥ 80 | ≥ 80 | ≥ 80 | – |
| CC(Cc1ccccc1)C(C)(C)NC(=O)c1cnc2c(F)cccc2c1 (centres unmarked) [E-16] | ≥ 80 | ≥ 80 | ≥ 80 | – | ≥ 80 | – | ≥ 80 | – |
| CC(CC1CCCCC1)(CC(F)(F)F)NC(=O)c1cnc2ccccc2c1 (centres unmarked) [E-60] | ≥ 80 | ≥ 80 | ≥ 80 | 70 to 87 | ≥ 80 | ≥ 80 | ≥ 80 | – |
| CCCC(C)CC(C)(CC(F)(F)F)NC(=O)c1cnc2c(F)cccc2c1 (centres unmarked) [E-52] | ≥ 80 | ≥ 80 | ≥ 80 | – | ≥ 80 | ≥ 80 | ≥ 80 | – |
| Cc1cccc2cc(C(=O)NC(C)CC3CC=CCC3)cnc12 (centres unmarked) [E-50] | ≥ 80 | ≥ 80 | ≥ 80 | – | ≥ 80 | – | ≥ 80 | – |
| Cc1cccc2cc(C(=O)NC(C)(CC3CCCC3)CC(F)(F)F)cnc12 (centres unmarked) [E-64] | ≥ 80 | ≥ 80 | ≥ 80 | 108 to 116 | ≥ 80 | ≥ 80 | ≥ 80 | ≥ 80 |
| O=C(NC(CC1CC1)CC1CC1)c1cnc2c(F)cccc2c1 [E-24] | ≥ 80 | ≥ 80 | ≥ 80 | 141 to 143 | – | ≥ 80 | – | – |
| CC(C)=CCC(C)(CC(C)C)NC(=O)c1cnc2c(F)cccc2c1 (centres unmarked) [E-11] | ≥ 80 | ≥ 80 | ≥ 80 | 94 to 96 | – | ≥ 80 | ≥ 80 | – |
| C=C(C)CC(C)(CC(C)C)NC(=O)c1cnc2ccccc2c1 (centres unmarked) [E-12] | ≥ 80 | ≥ 80 | ≥ 80 | 89 to 91 | ≥ 80 | ≥ 80 | ≥ 80 | – |
| CC1(CC(C)(CC(F)(F)F)NC(=O)c2cnc3c(F)cccc3c2)CC1 (centres unmarked) [E-10, 8-fluoro-N-[3,3,3-trifluoro-1-methyl-1-[(1-methylcyclopropyl)methyl]propyl]quinoline-3-carboxamide] | ≥ 80 | ≥ 80 | ≥ 80 | 126 to 128 | – | ≥ 80 | ≥ 80 | – |
| C/C(=C/c1ccccc1)CC(C)(C)NC(=O)c1cnc2c(F)cccc2c1C [E-28] | – | ≥ 80 | ≥ 80 | 96 to 98 | – | – | – | – |
| C=C(C)CC(COC)(CC(=C)C)NC(=O)c1cnc2c(F)cccc2c1 [E-20] | ≥ 80 | ≥ 80 | ≥ 80 | 97 to 100 | ≥ 80 | ≥ 80 | ≥ 80 | – |
| COc1ccc(CCC(C)(C#N)NC(=O)c2cnc3c(F)cccc3c2)cc1 (centres unmarked) [E-30] | ≥ 80 | ≥ 80 | – | 175 to 176 | – | – | – | – |
